From US20070026080A1, “Manufacturing process for tigecycline” (Wyeth, priority 2005, published 2007)

Experiment: Strength and degradation profile of tigecycline 20 mg/mL bulk solutions by reversed phase HPLC (effect of temperature, time, pH, dissolved oxygen; Runs A to O)
Assay type: physicochemical
Description: The contents of the sample vials are dissolved in diluent. The sample solution is diluted, if necessary, and chromatographed on a reversed phase column using gradient elution. Impurities are determined by comparing the impurity peak areas in the sample preparation chromatogram to the average area of tigecycline peaks in the standard preparation chromatograms obtained concomitantly.
Chromatographic Column—Length about 15 cm, inside diameter about 4.6 mm, packed with Inertsil ODS2, 5 μm size particles or equivalent.
Detector—Ultraviolet spectrophotometric detector capable of operating at 248 nm with a sensitivity of about 0.5 absorbance units full scale.
The results of additional studies to investigate the effect of processing parameters such as temperature, time, and dissolved oxygen content on the purity profile of tigecycline solutions using the following materials, methods and procedures are presented in Tables A to O.
The experiments were run in plastic glove bags under normal laboratory light conditions. Plastic glove boxes will be used to control the headspace of the beakers. The batch size was 200 mL. • 1. Prepare the glove bag with a mixture of nitrogen and air to achieve an oxygen level in the solution as per the design. • 2. Place the jacketed beaker on the magnetic stirrer. Connect it to the cooler. Set the cooler to the desired set point. • 3. Add 200 mL of SWFI in to the beaker. Allow equilibrating. Measure the temperature and oxygen content. When it reaches the desired condition, add accurately weighed API and mix until dissolved. If necessary use spatula to aid dissolution. For pH adjustments, use 4 mL of either 0.1N NaOH or 0.1N HCl and 196 mL of WFI for manufacture. • 4. After complete dissolution, Transfer about 5.5 mL of Solution in vials and stopper them. These vials will be stoppered at the appropriate headspace conditions. Place the vials in appropriate temperature conditions. • 5. Sample the vials at 1, 4, 8, 10, 12 and 24 hours. Send the samples for analysis. Freeze the 10, 12 and 24 samples at −20° C. for analysis the following day. • 6. Measure pH and record color of the solution at each time point. Results
The 1-hour samples were taken directly from the beakers. Samples for later time points were collected in stoppered vials processed in the atmosphere of the bag in order to simulate the headspace conditions then placed in water baths or refrigerator to maintain there respective temperature conditions. This was done to maintain safety in the lab. Disposable plastic glove bags require constant flow of a mixture of nitrogen and air to maintain headspace oxygen level that will result in the desired dissolved oxygen (DO) content in the sample. The pH of samples was measured at each sample points.
Strength and degradation profile was analyzed by HPLC as described above. […] Degradation was slightly higher at higher temperature condition.

[1] = Run #N, 8° C., pH 8.2, Oxygen = 0.1 mg/L, 4 Hrs
[2] = Run #N, 8° C., pH 8.2, Oxygen = 0.1 mg/L, 8 Hrs
[3] = Run #N, 8° C., pH 8.2, Oxygen = 0.1 mg/L, 12 Hrs
[4] = Run #N, 8° C., pH 8.2, Oxygen = 0.1 mg/L, 24 Hrs
[5] = Run #O, 20 mg/mL, 5° C., Oxygen = 0.1 mg/mL, hours 1,4,8,12,24 at r7-r11, time 1 h
[6] = Run #O, 20 mg/mL, 5° C., Oxygen = 0.1 mg/mL, hours 1,4,8,12,24 at r7-r11, time 4 h
[7] = Run #O, 20 mg/mL, 5° C., Oxygen = 0.1 mg/mL, hours 1,4,8,12,24 at r7-r11, time 8 h
[8] = Run #O, 20 mg/mL, 5° C., Oxygen = 0.1 mg/mL, hours 1,4,8,12,24 at r7-r11, time 12 h
[9] = Run #O, 20 mg/mL, 5° C., Oxygen = 0.1 mg/mL, hours 1,4,8,12,24 at r7-r11, time 24 h

With `CN(C)c1cc(NC(=O)CNC(C)(C)C)c(O)c2c1C[C@H]1C[C@H]3[C@H](N(C)C)C(O)=C(C(N)=O)C(=O)[C@@]3(O)C(O)=C1C2=O` [Tigecycline] the “RRT 0.78 MW = 557” value [1] was “BRL (BRL means below reporting limit (meaning less than 0.05% of tigecycline peak))”, the “RRT 1.12” value [1] was “BRL (BRL means below reporting limit (meaning less than 0.05% of tigecycline peak))” and the “RRT 1.45” value [1] was 0.07%. For the same molecule, the “RRT 1.58” value [1] was “BRL (BRL means below reporting limit (meaning less than 0.05% of tigecycline peak))”, the “RRT 1.64 Mino” value [1] was 0.10% and the “RRT 1.67 MW = 556” value [1] was “BRL (BRL means below reporting limit (meaning less than 0.05% of tigecycline peak))”. For the same molecule, the “RRT 1.85 MW = 597” value [1] was 0.09%, the Strength [1] was 19.378 mg/mL and the Total [1] was 0.54%. The “RRT 0.12 MW = 633” value [2] was “BRL (BRL means below reporting limit (meaning less than 0.05% of tigecycline peak))”, the “RRT 0.23 MW = 572” value [2] was “BRL (BRL means below reporting limit (meaning less than 0.05% of tigecycline peak))” and the “RRT 0.50 MW = 601” value [2] was “BRL (BRL means below reporting limit (meaning less than 0.05% of tigecycline peak))”. The “RRT 0.55 MW = 583” value [2] was “BRL (BRL means below reporting limit (meaning less than 0.05% of tigecycline peak))”, the “RRT 0.58” value [2] was 0.07% and the “RRT 0.64 9-Amino” value [2] was “BRL (BRL means below reporting limit (meaning less than 0.05% of tigecycline peak))”. The “RRT 0.74 Epimer” value [2] was 0.22%, the “RRT 0.76” value [2] was “BRL (BRL means below reporting limit (meaning less than 0.05% of tigecycline peak))” and the “RRT 0.78 MW = 557” value [2] was “BRL (BRL means below reporting limit (meaning less than 0.05% of tigecycline peak))”. The “RRT 1.12” value [2] was “BRL (BRL means below reporting limit (meaning less than 0.05% of tigecycline peak))”, the “RRT 1.45” value [2] was 0.08% and the “RRT 1.58” value [2] was “BRL (BRL means below reporting limit (meaning less than 0.05% of tigecycline peak))”. For the same molecule, the “RRT 1.64 Mino” value [2] was 0.08%, the “RRT 1.67 MW = 556” value [2] was “BRL (BRL means below reporting limit (meaning less than 0.05% of tigecycline peak))” and the “RRT 1.85 MW = 597” value [2] was 0.08%. The Strength [2] was 19.275 mg/mL, the Total [2] was 0.53% and the “RRT 0.12 MW = 633” value [3] was “BRL (BRL means below reporting limit (meaning less than 0.05% of tigecycline peak))”. The “RRT 0.23 MW = 572” value [3] was “BRL (BRL means below reporting limit (meaning less than 0.05% of tigecycline peak))”, the “RRT 0.50 MW = 601” value [3] was “BRL (BRL means below reporting limit (meaning less than 0.05% of tigecycline peak))” and the “RRT 0.55 MW = 583” value [3] was 0.07%. For the same molecule, the “RRT 0.58” value [3] was 0.06%, the “RRT 0.64 9-Amino” value [3] was “BRL (BRL means below reporting limit (meaning less than 0.05% of tigecycline peak))” and the “RRT 0.74 Epimer” value [3] was 0.31%. The “RRT 0.76” value [3] was “BRL (BRL means below reporting limit (meaning less than 0.05% of tigecycline peak))”, the “RRT 0.78 MW = 557” value [3] was “BRL (BRL means below reporting limit (meaning less than 0.05% of tigecycline peak))” and the “RRT 1.12” value [3] was “BRL (BRL means below reporting limit (meaning less than 0.05% of tigecycline peak))”. For the same molecule, the “RRT 1.45” value [3] was 0.08%, the “RRT 1.58” value [3] was 0.05% and the “RRT 1.64 Mino” value [3] was 0.11%. The “RRT 1.67 MW = 556” value [3] was 0.07%, the “RRT 1.85 MW = 597” value [3] was 0.08% and the Strength [3] was 19.382 mg/mL. For the same molecule, the Total [3] was 0.83%, the “RRT 0.12 MW = 633” value [4] was “BRL (BRL means below reporting limit (meaning less than 0.05% of tigecycline peak))” and the “RRT 0.23 MW = 572” value [4] was “BRL (BRL means below reporting limit (meaning less than 0.05% of tigecycline peak))”. For the same molecule, the “RRT 0.50 MW = 601” value [4] was “BRL (BRL means below reporting limit (meaning less than 0.05% of tigecycline peak))”, the “RRT 0.55 MW = 583” value [4] was “BRL (BRL means below reporting limit (meaning less than 0.05% of tigecycline peak))” and the “RRT 0.58” value [4] was 0.06%. For the same molecule, the “RRT 0.64 9-Amino” value [4] was “BRL (BRL means below reporting limit (meaning less than 0.05% of tigecycline peak))”, the “RRT 0.74 Epimer” value [4] was 0.31% and the “RRT 0.76” value [4] was “BRL (BRL means below reporting limit (meaning less than 0.05% of tigecycline peak))”. For the same molecule, the “RRT 0.78 MW = 557” value [4] was “BRL (BRL means below reporting limit (meaning less than 0.05% of tigecycline peak))”, the “RRT 1.12” value [4] was “BRL (BRL means below reporting limit (meaning less than 0.05% of tigecycline peak))” and the “RRT 1.45” value [4] was 0.10%. The “RRT 1.58” value [4] was 0.05%, the “RRT 1.64 Mino” value [4] was 0.13% and the “RRT 1.67 MW = 556” value [4] was 0.07%. The “RRT 1.85 MW = 597” value [4] was 0.11%, the Strength [4] was 19.211 mg/mL and the Total [4] was 0.82%. For the same molecule, the “RRT 0.74 Epimer” value [5] was 0.21%, the “RRT 1.85 MW = 597” value [5] was 0.08% and the Strength [5] was 18.777 mg/mL. For the same molecule, the “RRT 0.58” value [6] was 0.09%, the “RRT 0.74 Epimer” value [6] was 0.23% and the Strength [6] was 18.971 mg/mL. The Total [6] was 0.53%, the “RRT 1.45” value [7] was 0.09% and the “RRT 1.64 Mino” value [7] was 0.06%. The “RRT 1.85 MW = 597” value [7] was 0.09%, the Strength [7] was 19.051 mg/mL and the “RRT 0.58” value [8] was 0.07%. The “RRT 0.74 Epimer” value [8] was 0.24%, the “RRT 1.45” value [8] was 0.07% and the “RRT 1.64 Mino” value [8] was 0.08%. The “RRT 1.85 MW = 597” value [8] was 0.10%, the Strength [8] was 18.722 mg/mL and the Total [8] was 0.55%. For the same molecule, the “RRT 0.74 Epimer” value [9] was 0.25%, the “RRT 1.64 Mino” value [9] was 0.11% and the “RRT 1.85 MW = 597” value [9] was 0.06%. The Strength [9] was 19.238 mg/mL, the Total [9] was 0.56% and the “effect of pH on the degradation of tigecycline bulk solution” value (range of pH (7.7-8.2) studied) was “did not have any significant effect”. For the same molecule, the degradation (when oxygen is removed from the process and the temperature is controlled) was “very little degradation is seen”.
